Results taken from patent EP0942911B1, “BENZOPYRANOPYRROLE AND BENZOPYRANOPYRIDINE ALPHA-1 ADRENERGIC COMPOUNDS” (Abbott Laboratories, priority 1996, dated 1998).
Where a name gives a salt, the structure may show the parent alone. Read-outs that look alike come from different tables or passages of the source.

How the values were obtained:
Experiment in all cases: biochemical
α-1d adrenoreceptor = molecular target: T1, α-1d adrenoreceptor (Rattus norvegicus, UniProt P23944); type: binding; conditions: read-out: Radioligand Binding (Ki, nM) 1d (Rat)
T1 sequence (P23944 1-561): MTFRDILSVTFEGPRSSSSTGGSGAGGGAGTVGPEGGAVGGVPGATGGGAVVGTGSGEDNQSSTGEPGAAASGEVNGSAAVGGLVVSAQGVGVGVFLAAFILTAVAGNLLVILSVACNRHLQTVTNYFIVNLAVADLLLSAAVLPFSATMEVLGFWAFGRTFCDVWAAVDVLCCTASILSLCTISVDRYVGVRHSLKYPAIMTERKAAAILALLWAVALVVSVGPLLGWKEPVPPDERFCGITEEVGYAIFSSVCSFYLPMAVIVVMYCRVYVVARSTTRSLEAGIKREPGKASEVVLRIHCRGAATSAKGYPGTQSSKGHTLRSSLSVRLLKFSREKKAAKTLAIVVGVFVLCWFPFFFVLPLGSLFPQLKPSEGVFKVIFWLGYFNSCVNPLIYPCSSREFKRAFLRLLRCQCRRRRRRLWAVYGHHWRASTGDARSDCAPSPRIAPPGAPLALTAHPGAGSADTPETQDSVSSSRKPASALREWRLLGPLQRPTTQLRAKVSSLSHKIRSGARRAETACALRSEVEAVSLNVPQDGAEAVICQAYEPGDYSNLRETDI
Method in brief: (§1)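 Affinities are from radioligand binding on membranes of mouse LTK fibroblast clones stably expressing each cloned α-1 subtype; rat submaxillary gland served as native α-1A tissue.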

α-1a adrenoreceptor = molecular target: T2, α-1a adrenoreceptor (Bos taurus, UniProt P18130); type: binding, bovine; conditions: read-out: Radioligand Binding (Ki, nM) 1a (Bovine)
T2 sequence (P18130 1-466): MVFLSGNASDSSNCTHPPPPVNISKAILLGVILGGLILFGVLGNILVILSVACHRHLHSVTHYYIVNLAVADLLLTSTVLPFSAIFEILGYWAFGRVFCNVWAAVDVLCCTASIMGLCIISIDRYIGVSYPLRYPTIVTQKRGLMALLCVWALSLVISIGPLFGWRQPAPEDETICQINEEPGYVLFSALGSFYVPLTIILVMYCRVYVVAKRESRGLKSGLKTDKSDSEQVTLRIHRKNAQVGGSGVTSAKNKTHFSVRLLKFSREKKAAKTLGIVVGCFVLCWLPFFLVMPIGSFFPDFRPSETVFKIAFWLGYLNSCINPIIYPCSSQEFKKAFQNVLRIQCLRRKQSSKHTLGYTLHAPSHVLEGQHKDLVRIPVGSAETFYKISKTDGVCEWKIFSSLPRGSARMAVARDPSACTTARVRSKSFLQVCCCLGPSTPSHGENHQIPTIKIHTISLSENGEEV
Method in brief: as §1

[1] = molecular target: T3, α-1A adrenoreceptor (rat submaxillary gland) (Rattus norvegicus, UniProt P43140); type: binding; conditions: read-out: Radioligand Binding (Ki, nM) 1A (Rat)
T3 sequence (P43140 1-466): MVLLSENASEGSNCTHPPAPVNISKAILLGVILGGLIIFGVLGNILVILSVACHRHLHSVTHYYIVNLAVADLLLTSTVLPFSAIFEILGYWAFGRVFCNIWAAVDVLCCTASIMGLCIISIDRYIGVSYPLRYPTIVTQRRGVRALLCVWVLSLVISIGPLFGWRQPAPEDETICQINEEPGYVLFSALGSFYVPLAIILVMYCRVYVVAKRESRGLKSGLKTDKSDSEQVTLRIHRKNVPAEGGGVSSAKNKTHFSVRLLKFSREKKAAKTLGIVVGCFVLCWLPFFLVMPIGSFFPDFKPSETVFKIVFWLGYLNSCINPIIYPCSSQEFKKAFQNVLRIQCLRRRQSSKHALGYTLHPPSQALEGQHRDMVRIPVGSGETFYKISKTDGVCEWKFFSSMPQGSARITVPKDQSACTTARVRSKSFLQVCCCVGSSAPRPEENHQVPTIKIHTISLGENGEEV
Method in brief: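 Radioligand binding to α-1A sites in membrane homogenates of rat submaxillary gland, run after Greengrass and Bremner. Bound radioactivity counted by liquid scintillation.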

[2] = [3H]-prazosin radioligand, cloned receptor in LTK cell membranes
[3] = [3H]-prazosin radioligand, rat submaxillary gland membranes

SMILES	Ki (α-1d adrenoreceptor)	Ki (α-1a adrenoreceptor)	Ki [1]	Ki (α-1d adrenoreceptor; [2])	Ki (α-1a adrenoreceptor; [2])	Ki [1, 3]
COc1ccc2c(c1)OC[C@H]1CN(CCn3c(=O)[nH]c4c(sc5ccccc54)c3=O)C[C@@H]21.Cl (racemic) [Example 63, 3-[2-((±)-cis-7-Methoxy-1,2,3,3a,4,9b-hexahydro-[1]-benzopyrano[3,4-c]pyrrol-2-yl)ethyl]-[1]benzthieno[3,2-d]pyrimidine-2,4(1H,3H)-dione hydrochloride]	70.1 nM	11.2 nM	51.2 nM	–	–	–
COc1cccc2c1[C@@H]1CCN(CCCCn3c(=O)[nH]c4c(sc5ncc(Cl)nc54)c3=O)C[C@H]1CO2 [Example 97, 3-[4-((4aS,10bR)-trans-10-Methoxy-1,3,4,4a,5,10b-hexahydro-2H-[1]-benzopyrano[3,4-c]pyrido-3-yl)butyl]-8-chloro-pyrazino[2',3':4,5]thieno[3,2-d]pyrimidine-2,4(1H,3H)-dione dihydrochloride]	–	–	–	0.247 nM	0.097 nM	0.892 nM
COc1cnc2sc3c(=O)n(CCCCN4C[C@@H]5COc6cccc(OC)c6[C@@H]5C4)c(=O)[nH]c3c2n1 [Example 31, 3-[4-((3aR,9bR)-cis-9-Methoxy-1,2,3,3a,4,9b-hexahydro-[1]-benzopyrano[3,4-c]pyrrol-2-yl)butyl]-8-methoxy-pyrazino[2',3':4,5]thieno[3,2-d]pyrimidine-2,4(1H,3H)-dione hydrochloride]	–	–	–	0.344 nM	0.06 nM	0.224 nM
COc1cccc2c1[C@@H]1CN(CCCCn3c(=O)[nH]c4c(sc5ncccc54)c3=O)C[C@H]1CO2 [Example 44, 3-[4-((3aS,9bR)-trans-9-Methoxy-1,2,3,3a,4,9b-hexahydro-[1]-benzopyrano[3,4-c]pyrrol-2-yl)butyl]-pyrido[3',2':4,5]thieno[3,2-d]pyrimidine-2,4(1H,3H)-dione hydrochloride]	–	–	–	0.081 nM	0.043 nM	0.043 nM
COc1ccc2c(n1)sc1c(=O)n(CCCCN3C[C@H]4COc5cccc(OC)c5[C@@H]4C3)c(=O)[nH]c12 [Example 46, 3-[4-((3aS,9bR)-trans-9-Methoxy-1,2,3,3a,4,9b-hexahydro-[1]-benzopyrano[3,4-c]pyrrol-2-yl)butyl]-7-methoxy-pyrido[3',2':4,5]thieno[3,2-d]pyrimidine-2,4(1H,3H)-dione hydrochloride]	–	–	–	0.114 nM	0.033 nM	0.353 nM
COc1cccc2c1OC[C@H]1CN(CCCn3c(=O)[nH]c4c(sc5ccccc54)c3=O)C[C@@H]21.Cl (racemic) [Example 68, 3-[3-((±)-cis-6-Methoxy-1,2,3,3a,4,9b-hexahydro-[1]-benzopyrano[3,4-c]pyrrol-2-yl)propyl]-[1]benzthieno[3,2-d]pyrimidine-2,4(1H,3H)-dione hydrochloride]	42.5 nM	7.82 nM	40.6 nM	–	–	–
COc1cccc2c1[C@@H]1CN(CCCCn3c(=O)[nH]c4c(sc5c(OC)ccnc54)c3=O)C[C@H]1CO2 [Example 17, 3-[4-((3aS,9bR)-trans-9-Methoxy-1,2,3,3a,4,9b-hexahydro-[1]-benzopyrano[3,4-c]pyrrol-2-yl)butyl]-6-methoxy-pyrido[2',3':4,5]thieno[3,2-d]pyrimidine-2,4(1H,3H)-dione dihydrochloride]	–	–	–	0.19 nM	0.068 nM	0.175 nM
COc1cccc2c1[C@@H]1CN(CCCCn3c(=O)[nH]c4c(sc5cnccc54)c3=O)C[C@@H]1CO2 [Example 29, 3-[4-((3aR,9bR)-cis-9-Methoxy-1,2,3,3a,4,9b-hexahydro-[1]-benzopyrano[3,4-c]pyrrol-2-yl)butyl]-pyrido[4',3':4,5]thieno[3,2-d]pyrimidine-2,4(1H,3H)-dione dihydrochloride]	–	–	–	0.466 nM	0.095 nM	0.252 nM
COc1cccc2c1OC[C@H]1CN(CCn3c(=O)[nH]c4c(sc5ccccc54)c3=O)C[C@@H]21.Cl (racemic) [Example 67, 3-[2-((±)-cis-6-Methoxy-1,2,3,3a,4,9b-hexahydro-[1]-benzopyrano[3,4-c]pyrrol-2-yl)ethyl]-[1]benzthieno[3,2-d]pyrimidine-2,4(1H,3H)-dione hydrochloride]	65 nM	77.2 nM	116 nM	–	–	–
COc1cccc2c1[C@@H]1CN(CCCCn3c(=O)[nH]c4c(sc5cc(Cl)cnc54)c3=O)C[C@@H]1CO2 [Example 38, 3-[4-((3aR,9bR)-cis-9-Methoxy-1,2,3,3a,4,9b-hexahydro-[1]-benzopyrano[3,4-c]pyrrol-2-yl)butyl]-7-chloro-pyrido[2',3':4,5]thieno[3,2-d]pyrimidine-2,4(1H,3H)-dione hydrochloride]	–	–	–	0.897 nM	0.057 nM	0.376 nM
O=c1[nH]c2c(sc3cccnc32)c(=O)n1CCCCN1C[C@@H]2COc3ccccc3[C@@H]2C1 (racemic) [Example 70, 3-[4-((±)-cis-1,2,3,3a,4,9b-hexahydro-[1]-benzopyrano[3,4-c]pyrrol-2-yl)butyl]-pyrido[2',3':4,5]thieno[3,2-d]pyrimidine-2,4(1H,3H)-dione dihydrochloride]	0.482 nM	0.082 nM	0.17 nM	–	–	–
COc1ccc2c(c1)OC[C@H]1CN(CCCn3c(=O)[nH]c4c(sc5ccccc54)c3=O)C[C@@H]21.Cl (racemic) [Example 64, 3-[3-((±)-cis-7-Methoxy-1,2,3,3a,4,9b-hexahydro-[1]-benzopyrano[3,4-c]pyrrol-2-yl)propyl]-[1]benzthieno[3,2-d]pyrimidine-2,4(1H,3H)-dione hydrochloride]	10.4 nM	1.63 nM	4.2 nM	–	–	–
COc1cccc2c1[C@@H]1CN(CCCCn3c(=O)[nH]c4c(sc5ncc(-c6ccccc6)nc54)c3=O)C[C@H]1CO2 [Example 50, 3-[4-((3aS,9bR)-trans-9-Methoxy-1,2,3,3a,4,9b-hexahydro-[1]-benzopyrano[3,4-c]pyrrol-2-yl)butyl]-8-phenyl-pyrazino[2',3':4,5]thieno[3,2-d]pyrimidine-2,4(1H,3H)-dione hydrochloride]	–	–	–	0.391 nM	0.335 nM	1.93 nM
COc1cccc2c1[C@@H]1CN(CCCCn3c(=O)[nH]c4c(sc5ncc(Cl)nc54)c3=O)C[C@H]1CO2 [Example 13, 3-[4-((3aS,9bR)-trans-9-Methoxy-1,2,3,3a,4,9b-hexahydro-[1]-benzopyrano[3,4-c]pyrrol-2-yl)butyl]-8-chloro-pyrazino[2',3':4,5]thieno[3,2-d]pyrimidine-2,4(1H,3H)-dione hydrochloride]	–	–	–	0.112 nM	0.041 nM	0.1 nM
COc1cccc2c1[C@@H]1CN(CCCCn3c(=O)[nH]c4c(sc5nc(C)ccc54)c3=O)C[C@H]1CO2 [Example 45, 3-[4-((3aS,9bR)-trans-9-Methoxy-1,2,3,3a,4,9b-hexahydro-[1]-benzopyrano[3,4-c]pyrrol-2-yl)butyl]-7-methyl-pyrido[3',2':4,5]thieno[3,2-d]pyrimidine-2,4(1H,3H)-dione hydrochloride]	–	–	–	0.104 nM	0.066 nM	0.125 nM
